Data: patent US9173400B2, “Anthranilamide arthropodicide treatment” (E I DU PONT DE NEMOURS AND COMPANY, priority 2001, dated 2015)

SMILES | melting point
CNC(=O)c1cc(Cl)cc(C)c1NC(=O)c1cc(Cl)nn1-c1ncccc1Cl | 205 to 207 °C
CNC(=O)c1cc(Cl)cc(C)c1NC(=O)c1cc(OCC(F)(F)F)nn1-c1ncccc1Cl | 215 to 217 °C
CCn1nc(C(F)(F)F)cc1NC(=O)c1c(C)cccc1C(=O)NC(C)C [Example 1, 2-[1-Ethyl-3-trifluoromethylpyrazol-5-ylcarbamoyl]-3-methyl-N-(1-methylethyl)benzamide] | 200 to 204 °C
Cc1cccc(C(=O)NC(C)C)c1NC(=O)c1cc(C(F)(F)F)nn1-c1ncccc1C(F)(F)F [Example 3, N-[2-Methyl-6-[[(1-methylethyl)amino]carbonyl]phenyl]-3-(trifluoromethyl)-1-[3-(trifluoromethyl)-2-pyridinyl]-1H-pyrazole-5-carboxamide] | 233 to 235 °C
